Converted amounts (≈) assume the structure as drawn. Where two headings read alike, the source gives them in different places.
Key:
[1] = Determination of the capacity factor (logk) by RP-HPLC; assay type: physicochemical; settings: reversed-phase chromatographic capacity factor, eluent pH 7.0
Protocol: Determination of the capacity factor. […] The same analytical method was used with modified eluents: eluent A was 20 mM triethylamine with phosphoric acid (pH 7.0), and eluent B was acetonitrile without additives. The method time was slightly extended, with a 1-minute longer gradient, resulting in an 8-minute program. The capacity factor was calculated with Equation 3: […]
where k is the capacity factor, tR is the retention time (min) of the compounds and t0 is the dead-time of the column (min).

[2] = In vitro gastrointestinal permeability assay (GI PAMPA); assay type: in vitro ADME; settings: for GI PAMPA membrane retention / GI PAMPA penetration: donor pH 6.5, acceptor pH 7.4, 1% DMSO, 37 °C, 4 hours, mean of 3 replicates; for GI PAMPA permeability in words / GI PAMPA membrane retention (MR) in words: wording of the text, outside the class key; for Papp at 4 h, 100 µM: PAMPA
Protocol: In vitro gastrointestinal permeability assay. […] The artificial membrane was fabricated by dissolving ʟ-α-phosphatidylcholine (16 mg) and cholesterol (4 mg) in a solvent mixture of chloroform, hexane and dodecane (5/70/25 vol %). Each well of the PAMPA donor plate (MAIPNTR, PVDF membrane, Merck KGaA, Darmstadt, Germany) was coated with 5 μL lipid solution. Thereafter the donor plate was fitted into the acceptor plate (MSSACCEPTOR, Merck KGaA, Darmstadt, Germany) already containing 300 μL PBS (pH 7.4) solutions with 1% DMSO. Finally, 150 μL of the initial solutions was pipetted into the donor plate, the plate sandwich was covered with a wet paper tissue and with a plate lid to avoid evaporation, and the system was incubated at 37 °C for 4 hours. Then samples were taken from the donor and acceptor wells and analyzed along with the initial solutions by HPLC.
[1] Pe=−2.303/A⋅(t−τss)⋅(1/1+ra)⋅lg[−ra+(1+ra/1−MR)⋅cD(t)/cD(0)]
[2] MR=1−cD(t)/cD(0)−VAcA(t)/VDcD(0)
where A is the filter area (0.24 cm^2), t is the incubation time (s), τss is the time to reach steady-state (s), ra is the sink asymmetry ratio approximated with a value of 10^−14, VD and VA are the volumes in the donor (0.15 mL) and the acceptor phase (0.3 mL), cD(t) is the concentration of the compound in the donor phase at time point t (mol/L), cD(0) is the concentration of the compound in the donor phase at time point zero (initial solutions, mol/L), cA(t) is the concentration of the compound in the acceptor phase at time point t (mol/L), cA(0) is the concentration of the compound in the acceptor phase at time point zero (mol/L).
(§1) Analytical methods. […] For a 7-minute long gradient program, eluents A (0.1% formic acid in water) and B (0.1% formic acid in acetonitrile) were used as follows: initial conditions with 30% B were kept for 1 minute, then 90% B was achieved within 3 minutes, kept for further 1 minute, finally the initial condition was adjusted and equilibrated for further 2 minutes. 5-Point calibration series were measured from each compound resulting in R^2 ≈ 0.9990–0.9999.

[3] = Kinetic aqueous solubility assay; assay type: physicochemical; parameters: key to Kinetic solubility (no value): –: Compounds with no value were under the detection limit; settings: for Kinetic solubility in words: wording of the text, outside the class key; for solubility kinetic at 2 h: PBS buffer, pH 6.5, aqueous buffer, kinetic from dmso stock; for Kinetic solubility (no value): PBS pH 6.5, 2 hours, dash = under the detection limit
Protocol: Kinetic aqueous solubility assay. All compounds were dissolved in DMSO to make stock solutions at 10 mM concentration. […] 5 μL of the stock solutions was pipetted into a 96-well plate containing 495 μL PBS (pH 6.5) in each well to achieve 100 μM target concentration (1% DMSO). […] The plate was then sealed and shaken for 2 hours at room temperature. Each compound was investigated in 3 replicates. After 2 hours, the samples were filtered on a MultriscreenHTS filter plate (MSSLBPC, polycarbonate membrane, Merck KGaA, Darmstadt, Germany) by a Millipore Vacuum Manifold (Merck KGaA, Darmstadt, Germany). Before analyzing, 20 vol % acetonitrile was added to each well to avoid sample precipitation during HPLC analysis.
as §1

[4] = Metabolic stability assay in human liver microsome fractions; assay type: in vitro ADME; settings: NADPH, 37 °C; for CLint scaled at 10 µM / half-life at 10 µM: pH 7.4, pooled human liver microsomes; for CLint scaled at 10 µM: read-out: HLM Clint (converted); for half-life at 10 µM: read-out: HLM t1/2
Protocol: Metabolic stability assay in human liver microsome fractions. The metabolic stability of the test compounds was assessed in vitro using pooled liver microsome fractions derived from humans (Xenotech LLC). The assay was conducted in a 96-well plate format according to a standardized protocol, utilizing cofactor-supplemented incubation systems, mainly to mimic phase I oxidative metabolic pathways. Human liver microsome (HLM) fractions were thawed on ice and diluted in 0.05 M potassium phosphate buffer (pH 7.4) to a final protein concentration of 1.25 mg/mL. Test compounds were dissolved in DMSO to create stock solutions of 5 mM. The drug concentration in the final assays was 10 μM. The assay was performed in triplicate. Reaction mixtures containing the diluted HLM fractions and test compounds were pre-incubated for 5 minutes at 37 °C while shaking at 450 rpm. The reaction was initiated by adding the 0.05 M NADPH cofactor mixture to the wells (100 µL per well) for the “with cofactors” conditions or by adding phosphate buffer for the “without cofactors” control. Aliquots (100 µL) were taken at zero time and at pre-defined time points of 30 and 60 minutes and quenched with an equal volume of cold acetonitrile. The samples were centrifuged at 2600 RCF for 10 minutes to pellet proteins. Supernatants were transferred to LC vials and stored at −20 °C until LC–MS/MS analysis. The concentration of the parent compound remaining in each sample was determined using liquid chromatography coupled with tandem mass spectrometry (LC–MS/MS). The percentage of the remaining substrate was calculated relative to the time-zero sample. The natural logarithm of the percentage remaining was plotted against incubation time to determine the first-order elimination rate constant (k) using linear regression. The half-life (t₁/₂) was calculated using Equation 4: […]
Intrinsic clearance (Clint) was calculated and scaled to in vivo conditions using Equation 5:
[5] Clint=ln2/t1/2×liver weight (g)/standard body weight (kg)×incubation volume (mL)/HLM protein/well×HLM protein (mg)/gram of liver
where the HLM protein per gram of liver was equal to 25 and the liver weight per standard body was equal to 49. Testosterone was included as a positive control to confirm metabolic competence of the HLM fractions, with and without cofactors.
HPLC–MS analysis. The semi-quantitative determination of test compounds was carried out using a Waters Xevo G2-XS QToF mass spectrometer equipped with an electrospray ionization (ESI) source operating in positive ion mode. Chromatographic separation was performed on a Waters XBridgeTM Premier BEH C18 (3.5 μm, 4.6 × 150 mm) column maintained at 40 °C. The mobile phase consisted of water with 0.1% formic acid (A) and acetonitrile with 0.1% formic acid (B). The injection volume was 10 µL. The autosampler was maintained at 5 °C. The gradient elution program shown in Table 4 was applied at a constant flow rate of 1.0 mL/min.
The mass spectrometer operated in sensitivity mode with a capillary voltage of 3.0 kV, source temperature was 100 °C, and desolvation temperature was 350 °C. The cone gas flow was set to 0 L/h and desolvation gas flow to 800 L/h. LockSpray calibration was performed using leucine enkephalin as the reference compound (m/z 556.2771), introduced at 15 µL/min. Data acquisition was performed in MSE mode with alternating low collision energy (6 eV) and ramped high-energy collision dissociation (20–40 eV). The mass range was set from 50 to 1200 Da. Each function used a scan time of 0.5 s. Data were acquired in the continuum mode. Instrument mass accuracy calibration was verified using sodium formate. The system was controlled with a MassLynx v4.2 SCN996 software.

[5] = PBS pH 6.5, 100 µM target concentration (1% DMSO), 2 hours, room temperature, mean of 3 replicates
[6] = PBS pH 6.5, 100 µM target concentration (1% DMSO), 2 hours, room temperature, mean of 3 replicates, read-out: Kinetic solubility
[7] = class in words, read-out: Kinetic solubility category
[8] = class in words, read-out: GI PAMPA permeability (Pe) category
[9] = colour key of Figure 5, read-out: Permeability category (Pe), colouring of Figure 5
[10] = scaled to in vivo conditions (Equation 5)

logk (−) pH 7.0 [1]	GI PAMPA membrane retention [2]	GI PAMPA penetration [2]	solubility kinetic at 2 h [3, 6]	SMILES	also measured
0.547	61.0 ± 5.1%	33.6 ± 3.0 10^−6 cm/s		CC/C(C)=N/Nc1cccc2c1S(=O)(=O)N(C)N=C2C [(E)-7a]	GI PAMPA membrane retention (MR) category ([2]; class in words): moderate (moderate under 80%); GI PAMPA permeability (Pe) category ([2]; class in words): good (good above 10 × 10^−6 cm/s); Kinetic solubility [3, 5]: 20.5 ± 0.8 µM; Kinetic solubility in words [3]: moderate to good; HLM Clint ([4]; pooled human liver microsomes, 10 μM, scaled to in vivo conditions (Equation 5)): 1.2 ± 0.042 mL/h/kg; HLM t1/2 ([4]; pooled human liver microsomes, 10 μM, triplicate): 34 ± 1 min
0.580			1.5 ± 0.09 µM (≈ 0.416 µg/mL)	CC1=NN(C)S(=O)(=O)c2c1ccc1c(C)c(C)[nH]c21 [Compound 3a]	
0.603	98.5 ± 0.1%	0.0 10^−6 cm/s	31 ± 2.2 µM (≈ 9.03 µg/mL)	CCc1[nH]c2c3c(ccc2c1C)C(C)=NN(C)S3(=O)=O [Compound 3b]	GI PAMPA membrane retention (MR) category ([2]; class in words): extremely high (extremely high above 90%); GI PAMPA permeability in words [2]: nearly zero; solubility kinetic at 2 h [3, 7]: > 30 µM
0.567	39.8 ± 0.2%	30.3 ± 4.2 10^−6 cm/s	41.4 ± 0.9 µM (≈ 10.9 µg/mL)	CC1=NN(C)S(=O)(=O)c2c1ccc1c(C)c[nH]c21 [Compound 3c]	Papp at 4 h, 100 µM [2, 8]: > 10 ×10⁻⁶ cm/s; Papp at 4 h, 100 µM [2, 9]: > 10 ×10⁻⁶ cm/s; GI PAMPA membrane retention (MR) category ([2]; class in words): moderate (moderate under 80%); solubility kinetic at 2 h [3, 7]: > 30 µM; Kinetic solubility in words [3]: moderate to good; CLint scaled at 10 µM [4, 10]: 1.42 mL/h/kg; half-life at 10 µM ([4]; triplicate): 29 ± 2 min
0.591			3.2 ± 0.2 µM (≈ 0.926 µg/mL)	CC1=NN(C)S(=O)(=O)c2c1ccc1c3c([nH]c21)CCC3 [Compound 3d]	
0.516	82.3 ± 0.8%	7.1 ± 1.7 10^−6 cm/s	51.4 ± 1.3 µM (≈ 15.6 µg/mL)	CC1=NN(C)S(=O)(=O)c2c1ccc1c3c([nH]c21)CCCC3 [Compound 3e, 2,4-Dimethyl-2,7,8,9,10,11-hexahydro[1,2,3]thiadiazino[6,5-a]carbazole 1,1-dioxide]	Papp at 4 h, 100 µM [2, 8]: < 10 ×10⁻⁶ cm/s; Papp at 4 h, 100 µM [2, 9]: < 10 ×10⁻⁶ cm/s; GI PAMPA membrane retention (MR) in words [2]: high; solubility kinetic at 2 h [3, 7]: > 30 µM; half-life at 10 µM ([4]; triplicate): 100 ± 23 min
0.629			5 ± 0.3 µM (≈ 1.7 µg/mL)	Cc1[nH]c2c3c(ccc2c1C)C(c1ccccc1)=NN(C)S3(=O)=O [Compound 3f]	
0.614			8.6 ± 0.3 µM (≈ 2.8 µg/mL)	Cc1c[nH]c2c3c(ccc12)C(c1ccccc1)=NN(C)S3(=O)=O [Compound 3h, 2,7-Dimethyl-4-phenyl-2,9-dihydro[1,2,3]thiadiazino[5,6-g]indole 1,1-dioxide]	
0.645				CN1N=C(c2ccccc2)c2ccc3c4c([nH]c3c2S1(=O)=O)CCC4 [Compound 3i]	Kinetic solubility [3, 5]: 1.7 ± 0.3 µM
0.660				CN1N=C(c2ccccc2)c2ccc3c4c([nH]c3c2S1(=O)=O)CCCC4 [Compound 3j]	Kinetic solubility (no value) ([3]; room temperature): –
0.625				CCC(CC)=NNc1cccc2c1S(=O)(=O)N(C)N=C2C [Compound 7b]	Kinetic solubility [3, 5]: 6.2 ± 0.3 µM
0.599	93.3 ± 0.2%	7.6 ± 2.9 10^−6 cm/s	46.9 ± 2.8 µM (≈ 14.4 µg/mL)	CC1=NN(C)S(=O)(=O)c2c(NN=C3CCCC3)cccc21 [Compound 7d]	Papp at 4 h, 100 µM [2, 8]: < 10 ×10⁻⁶ cm/s; Papp at 4 h, 100 µM [2, 9]: < 10 ×10⁻⁶ cm/s; GI PAMPA membrane retention (MR) in words [2]: high; solubility kinetic at 2 h [3, 7]: > 30 µM; CLint scaled at 10 µM [4, 10]: 1.34 mL/h/kg; half-life at 10 µM ([4]; triplicate): 31 ± 3 min
0.626	97.5 ± 0.3%	0.0 10^−6 cm/s	86.3 ± 3.9 µM (≈ 27.7 µg/mL)	CC1=NN(C)S(=O)(=O)c2c(NN=C3CCCCC3)cccc21 [Compound 7e, 8-(2-Cyclohexylidenehydrazino)-2,4-dimethyl-2H-1,2,3-benzothiadiazine 1,1-dioxide]	GI PAMPA membrane retention (MR) category ([2]; class in words): extremely high (extremely high above 90%); GI PAMPA permeability in words [2]: nearly zero; solubility kinetic at 2 h [3, 7]: > 30 µM
0.677				CCC(CC)=NNc1cccc2c1S(=O)(=O)N(C)N=C2c1ccccc1 [Compound 7g]	Kinetic solubility (no value) ([3]; room temperature): –
0.637				CC1=NN(C)S(=O)(=O)c2c1ccc1c2[nH]c2c3ccccc3ccc12 [Compound 10a]	Kinetic solubility (no value) ([3]; room temperature): –
0.685				CN1N=C(c2ccccc2)c2ccc3c([nH]c4c5ccccc5ccc34)c2S1(=O)=O [Compound 10b]	Kinetic solubility (no value) ([3]; room temperature): –
0.645			0.7 ± 0.02 µM (≈ 0.24 µg/mL)	CCC=NNc1cccc2c1S(=O)(=O)N(C)N=C2c1ccccc1 [crude 7h]	
